This note sets out measurements from patent US20040110771A1, “7-(r)-aminotriazolopyrimidines, the production thereof and use of the same for combatting phytopathogenic fungi” (priority 2000, published 2004).

Assay type in all cases: in vivo
The test system of one assay is Pyrenophora teres. Description: Activity against net blotch of barley caused by Pyrenophora teres. Conditions: barley seedlings "Igri", inoculated 24 h after spraying, 6 days. In short, it runs like this:
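Disease was read as visually estimated % infection of total leaf area 6 days after inoculation (greenhouse, 20-24° C, 95-100% humidity). Seedlings of cultivar Igri had been sprayed to runoff point with diluted compound emulsion and inoculated with a P. teres spore suspension 24 h later.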

The next assay has as its system Septoria tritici. The assay is described as follows: Protective activity against Septoria foliar blotch disease of wheat caused by Septoria tritici. The settings on record: wheat seedlings "Riband", inoculated 24 h after spraying, 2 weeks. As to the method: The active compounds were prepared separately or jointly as a 10% strength emulsion in a mixture of 70% by weight of cyclohexanone, 20% by weight of Nekanil® LN (Lutensol® AP6, wetting agent having emulsifying and dispersing action based on ethoxylated alkylphenols) and 10% by weight of Wettol® EM (nonionic emulsifier based on ethoxylated castor oil) and diluted with water to the desired concentration.
Leaves of potted wheat seedlings of the cultivar “Riband” were sprayed to runoff point with an aqueous preparation of active compound which had been prepared from a stock solution made of 10% of active compound, 85% of cyclohexanone and 5% of emulsifier. 24 hours after the spray coating had dried on, they were inoculated with an aqueous spore suspension of Septoria tritici. The suspension contained 2.0×10^6 spores/ml. The test plants were then placed in a greenhouse at 18-22° C. and a relative atmospheric humidity of close to 100%. After 2 weeks, the extent of the development of the disease was determined visually in % infection of the entire leaf area.

For assay [1], the system named is Blumeria graminis forma specialis tritici. Description: Activity against mildew of wheat caused by Blumeria graminis forma specialis tritici. Conditions: wheat seedlings "Kanzler", dusted with spores 24 h after spraying, 7 days. In short, it runs like this:
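Protective test: Blumeria graminis f. sp. tritici spores dusted onto cv. Kanzler wheat seedling leaves 24 h after spray deposit of aqueous compound preparation had dried. After 7 days in greenhouse (20-24° C., 60-90% relative humidity), infection estimated by eye as % of total leaf area.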

The next assay relates to Puccinia recondita. Description: Curative activity against brown rust of wheat caused by Puccinia recondita. Conditions: curative spray 24 h after inoculation, wheat seedlings "Kanzler", 7 days. In short, it runs like this:
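Wheat seedlings (cv. Kanzler) inoculated with brown rust spores and held 24 h at 90–95% humidity and 20–22°C, then sprayed to runoff with the emulsified compound the next day. Rust development on leaves scored after 7 days in greenhouse at 20–22°C and 65–70% relative humidity.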

For the compound `CCC(C)Nc1c(-c2c(F)c(F)c(F)c(F)c2F)c(Cl)nc2ncnn12` (stereo not drawn) [I.-19], the “% infection of the leaves after application of an aqueous preparation comprising . . . ppm of active compound” value (from here on “% infection of the leaves”) in the assay on Pyrenophora teres (250 ppm) amounted to 30%; in the assay on Septoria tritici (16 ppm) it was 50%; in the assay with Septoria tritici (63 ppm), 10%; with Septoria tritici (250 ppm) it was 10%; in assay [1] (63 ppm), 7%; in assay [1] (250 ppm) it was 7%.

Consider `COc1cc(F)c(-c2c(Cl)nc3ncnn3c2N[C@H](C)C(C)C)c(F)c1` [I.-17], for which the “% infection of the leaves” value in the assay with Septoria tritici (16 ppm) came out at 10%; in the assay with Septoria tritici (63 ppm), 10%; in the assay on Septoria tritici (250 ppm), 10%; in assay [1] (16 ppm), 60%; in assay [1] (63 ppm), 60%; in assay [1] (250 ppm), 60%.

As to `CC(C)[C@H](C)Nc1c(-c2c(F)c(F)c(F)c(F)c2F)c(Cl)nc2ncnn12` [comparison (S)-amine of I.-20], the “% infection of the leaves” value with Pyrenophora teres (16 ppm) is 100%; in the assay with Pyrenophora teres (63 ppm), 40%; in the assay on Pyrenophora teres (250 ppm), 7%; in the assay with Septoria tritici (16 ppm), 90%; with Septoria tritici (63 ppm), 90%; in the assay on Septoria tritici (250 ppm) it was 90%. For the same compound, the “% infection of the leaves” value in assay [1] (16 ppm) turned out to be 80%; in assay [1] (63 ppm) it was 40%; in assay [1] (250 ppm), 40%.

Consider `CC(C)C(C)Nc1c(-c2c(F)cccc2Cl)c(Cl)nc2ncnn12` [comparison (S)-amine of I.-2], for which the “% infection of the leaves” value with Puccinia recondita (16 ppm) is reported as 100%; in the assay with Puccinia recondita (63 ppm) it was 100%; with Puccinia recondita (250 ppm), 100%; in the assay on Septoria tritici (16 ppm) it was 90%; with Septoria tritici (63 ppm) it was 90%; in the assay with Septoria tritici (250 ppm), 90%. In addition, the “% infection of the leaves” value in assay [1] (63 ppm) and in assay [1] (250 ppm) was 100% throughout.

Take `CC(C)C(C)Nc1c(-c2c(Cl)cccc2Cl)c(Cl)nc2ncnn12` (stereo not drawn) [I.-8]: the “% infection of the leaves” value in the assay with Pyrenophora teres (16 ppm) stood at 40%; with Pyrenophora teres (63 ppm), 15%; in the assay on Pyrenophora teres (250 ppm), 15%; with Septoria tritici (16 ppm) it was 70%; in the assay on Septoria tritici (63 ppm), 30%; with Septoria tritici (250 ppm), 30%.

In the case of `CC[C@H](C)Nc1c(-c2c(F)cccc2F)c(Cl)nc2ncnn12` [comparison (S)-amine of I.-4], the “% infection of the leaves” value with Puccinia recondita (16 ppm) worked out at 100%; in the assay on Puccinia recondita (63 ppm), 100%; with Puccinia recondita (250 ppm), 100%; with Septoria tritici (16 ppm), 100%; in the assay with Septoria tritici (63 ppm) it was 100%; in the assay on Septoria tritici (250 ppm), 90%. Also, the “% infection of the leaves” value in assay [1] (16 ppm), in assay [1] (63 ppm) and in assay [1] (250 ppm) was 100% throughout.

Turning to `COc1cc(F)c(-c2c(Cl)nc3ncnn3c2N[C@@H](C)C(C)C)c(F)c1` [comparison (S)-amine of I.-17], the “% infection of the leaves” value in the assay with Septoria tritici (16 ppm) amounted to 90%; with Septoria tritici (63 ppm), 90%; with Septoria tritici (250 ppm), 90%; in assay [1] (16 ppm), 100%; in assay [1] (63 ppm) it was 100%; in assay [1] (250 ppm), 100%.

`CC[C@H](C)Nc1c(-c2c(F)cc(OC)cc2F)c(Cl)nc2ncnn12` [comparison (S)-amine of I.-16]: the “% infection of the leaves” value in the assay with Puccinia recondita (16 ppm) was determined as 100%; in the assay with Puccinia recondita (63 ppm) it was 5%; in the assay on Septoria tritici (63 ppm), 90%; in the assay with Septoria tritici (250 ppm) it was 90%; in assay [1] (16 ppm) it was 100%; in assay [1] (63 ppm) it was 100%. For the same compound, the “% infection of the leaves” value in assay [1] (250 ppm) is 100%.

As for `CC(C)[C@@H](C)Nc1c(-c2c(F)c(F)c(F)c(F)c2F)c(Cl)nc2ncnn12` [I.-20], the “% infection of the leaves” value in the assay on Pyrenophora teres (16 ppm) was 30%; in the assay on Pyrenophora teres (63 ppm), 10%; in the assay on Pyrenophora teres (250 ppm), 0%; with Septoria tritici (16 ppm) it was 10%; in the assay on Septoria tritici (63 ppm) it was 10%; in the assay with Septoria tritici (250 ppm), 10%. The “% infection of the leaves” value in assay [1] (16 ppm) is 30%; in assay [1] (63 ppm), 20%; in assay [1] (250 ppm), 5%.

`CC[C@H](C)Nc1c(-c2c(F)c(F)c(F)c(F)c2F)c(Cl)nc2ncnn12` [comparison (S)-amine of I.-19]: the “% infection of the leaves” value is on record as 80% in the assay on Pyrenophora teres (250 ppm); 90% with Septoria tritici (16 ppm); 90% with Septoria tritici (63 ppm); 90% in the assay with Septoria tritici (250 ppm); 30% in assay [1] (63 ppm); 30% in assay [1] (250 ppm).

For `CC(C)[C@H](C)Nc1c(-c2c(Cl)cccc2Cl)c(Cl)nc2ncnn12` [comparison (S)-amine of I.-8], the “% infection of the leaves” value with Pyrenophora teres (16 ppm) is 100%; in the assay with Pyrenophora teres (63 ppm), 100%; in the assay on Pyrenophora teres (250 ppm) it was 100%; in the assay on Septoria tritici (16 ppm) it was 90%; with Septoria tritici (63 ppm), 90%; with Septoria tritici (250 ppm) it was 90%.
